According to patent US20250144067A1, “PERSONALIZED STARVATION THERAPY FOR CANCER” (Faeth Therapeutics, Inc., priority 2021, published 2025):
Structures can show the parent of a compound that is named as a salt. Where two headings read alike, the source gives them in different places.

Experiments:
[1] = tested on: NCI-H292 lung cancer cells; test: FDA drug screening, complete media vs cholesterol-free media with simvastatin (TABLE 2); type: cell-based, human
[2] = tested on: NCI-H292 lung cancer cells; test: FDA drug screening, complete media vs cholesterol-free media without statin (TABLE 1); type: cell-based, human
[3] = NCI-H292 cells, FDA drug library screen, cholesterol-free media with simvastatin 0.04 μM
[4] = NCI-H292 cells, FDA drug library screen, complete media
[5] = complete media minus cholesterol-free media + simvastatin, >0 enhanced anti-cancer activity, about 0 neutral, <0 antagonist
[6] = Complete minus Cholesterol-free, >0 enhanced anti-cancer activity, about 0 neutral, <0 antagonist
[7] = NCI-H292 cells, cholesterol-free media without statin, FDA drug library screen
[8] = NCI-H292 cells, complete media, FDA drug library screen
[9] = complete media minus cholesterol-free media + simvastatin, […]
[10] = Complete minus Cholesterol-free, […]
[11] = NCI-H292 cells, cholesterol-free media without statin
[12] = complete media vs cholesterol-free media + simvastatin (0.04 μM), >0 enhanced anti-cancer activity, about 0 neutral, <0 antagonist
[13] = NCI-H292 cells, FDA library drug in cholesterol-free media with simvastatin 0.04 μM
[14] = NCI-H292 cells, FDA library drug in complete media
[15] = complete vs cholesterol-free media, >0 enhanced anti-cancer activity, about 0 neutral, <0 antagonist
[16] = complete vs cholesterol-free media, greater than 0 enhanced anti-cancer activity, about 0 neutral, below 0 antagonists
[17] = NCI-H292 cells, cholesterol-free media with simvastatin 0.04 μM, FDA drug library screen (TABLE 2)
[18] = NCI-H292 cells, complete media, FDA drug library screen (TABLE 2)
[19] = complete media minus cholesterol-free media + simvastatin (0.04 μM), >0 enhanced anti-cancer activity, about 0 neutral, <0 antagonist
[20] = complete media vs cholesterol-free media + simvastatin (0.04 μM), […]
[21] = complete vs cholesterol-free media, […]
[22] = NCI-H292 cells, cholesterol-free media with simvastatin 0.04 μM, cell growth value in FDA drug screen
[23] = NCI-H292 cells, complete media, cell growth value in FDA drug screen
[24] = Complete minus Cholesterol-free, greater than 0 enhanced anti-cancer activity, about 0 neutral, below 0 antagonist
[25] = NCI-H292 cells, FDA drug library screen, cholesterol-free media without statin

## Nc1nc2ccc(OC(F)(F)F)cc2s1 [Riluzole]
[1]; [3]
  Cholesterol-free media + simvastatin (0.04 μM): 0.9966
[1]; [4]
  Complete Media: 1.259
[1]; [5]
  Difference: 0.26
[2]; [6]
  Difference: 0.02
[2]; [7]
  Cholesterol-free: 1.015
[2]; [8]
  Complete: 1.033

## C=CC[C@]1(O)CC[C@H]2[C@@H]3CCC4=CCCC[C@@H]4[C@H]3CC[C@@]21C [Allylestrenol]
[1]; NCI-H292 cells, cholesterol-free media with simvastatin 0.04 μM, […]
  Cholesterol-free media + simvastatin (0.04 μM): 1.288
[1]; NCI-H292 cells, complete media, […]
  Complete Media: 1.384
[1]; [9]
  Difference: 0.10
[2]; [10]
  Difference: −0.56
[2]; NCI-H292 cells in cholesterol-free media without statin
  Cholesterol-free: 1.739
[2]; NCI-H292 cells in complete media
  Complete: 1.181

## COc1ccc2c(c1OC)C(=O)O[C@@H]2[C@H]1c2c(cc3c(c2OC)OCO3)CCN1C [Noscapine]
[1]; [3]
  Cholesterol-free media + simvastatin (0.04 μM): 0.7586
[1]; [4]
  Complete Media: 1.21
[1]; [5]
  Difference: 0.45
[2]; [6]
  Difference: −0.20
[2]; [11]
  Cholesterol-free: 1.288
[2]; NCI-H292 cells, complete media
  Complete: 1.088

## Sumatriptan (succinate)
[1]
  Cholesterol-free media + simvastatin (0.04 μM): 1.195
  Complete Media: 0.8897
  Difference: −0.31
[2]
  Cholesterol-free: 0.9558
  Complete: 2.035
  Difference: 1.08

## C=CCc1cc(OC)c(O)c(C(=O)NCCO)c1 [Alibendol]
[1]; [3]
  Cholesterol-free media + simvastatin (0.04 μM): 0.9518
[1]; [4]
  Complete Media: 0.8774
[1]; [12]
  Difference: −0.07
[2]; [6]
  Difference: −0.25
[2]; [11]
  Cholesterol-free: 1.047
[2]; NCI-H292 cells, complete media
  Complete: 0.797

## CC(=O)O[C@H]1CC[C@@]2(C)C(=CC[C@@H]3[C@@H]2CC[C@]2(C)C(c4cccnc4)=CC[C@@H]32)C1 [Abiraterone acetate]
[1]; [13]
  Cholesterol-free media + simvastatin (0.04 μM): 1.209
[1]; [14]
  Complete Media: 0.9
[1]; [12]
  Difference: −0.31
[2]; [7]
  Cholesterol-free: 0.5232
[2]; [8]
  Complete: 1.307
[2]; [15]
  Difference: 0.78

## CC(NCCc1ccc(O)cc1)C(O)c1ccc(O)cc1 (centres unmarked) [Ritodrine (hydrochloride)]
[1]; [3]
  Cholesterol-free media + simvastatin (0.04 μM): 1.064
[1]; [4]
  Complete Media: 0.9618
[1]; [12]
  Difference: −0.10
[2]; [11]
  Cholesterol-free: 1.435
[2]; NCI-H292 cells, complete media
  Complete: 0.972
[2]; [16]
  Difference: −0.46

## Cc1cccc([C@H](C)c2cnc[nH]2)c1C [Dexmedetomidine (hydrochloride)]
[1]; [17]
  Cholesterol-free media + simvastatin (0.04 μM): 1.227
[1]; [18]
  Complete Media: 1.157
[1]; [19]
  Difference: −0.07
[2]; [6]
  Difference: −0.05
[2]; [7]
  Cholesterol-free: 0.9551
[2]; [8]
  Complete: 0.9084

## CCOc1ccccc1OC(c1ccccc1)C1CNCCO1.CS(=O)(=O)O (centres unmarked) [Reboxetine (mesylate)]
[1]; [3]
  Cholesterol-free media + simvastatin (0.04 μM): 0.8624
[1]; [4]
  Complete Media: 0.7048
[1]; [20]
  Difference: −0.16
[2]; [7]
  Cholesterol-free: 1.105
[2]; [8]
  Complete: 1.321
[2]; [21]
  Difference: 0.22

## CCC1=C[C@@H]2[C@H](C1)C[C@]2(CN)CC(=O)O [Mirogabalin]
[1]; NCI-H292 cells, drug in cholesterol-free media with simvastatin 0.04 μM
  Cholesterol-free media + simvastatin (0.04 μM): 1.082
[1]; NCI-H292 cells, drug in complete media
  Complete Media: 0.8543
[1]; [20]
  Difference: −0.23
[2]; [7]
  Cholesterol-free: 0.5074
[2]; [8]
  Complete: 1.015
[2]; [21]
  Difference: 0.51

## O=C(O)CSc1nnc(Br)n1-c1ccc(C2CC2)c2ccccc12 [Lesinurad]
[1]; [22]
  Cholesterol-free media + simvastatin (0.04 μM): 0.9083
[1]; [23]
  Complete Media: 0.9388
[1]; [5]
  Difference: 0.03
[2]; [24]
  Difference: −0.12
[2]; [25]
  Cholesterol-free: 1.092
[2]; [4]
  Complete: 0.9716

## CN(C)C(=O)Oc1ccc[n+](C)c1.[Br-] [Pyridostigmine (bromide)]
[1]
  Cholesterol-free media + simvastatin (0.04 μM): 1.546
  Complete Media: 1.09
  Difference: −0.46
[2]
  Cholesterol-free: 0.882
  Complete: 0.9353
  Difference: 0.05

## Clc1cccc(Cl)c1N=C1NCCN1 [Clonidine (hydrochloride)]
[1]; [3]
  Cholesterol-free media + simvastatin (0.04 μM): 1.083
[1]; [4]
  Complete Media: 0.9532
[1]; [12]
  Difference: −0.13
[2]; [24]
  Difference: −0.12
[2]; [25]
  Cholesterol-free: 0.9351
[2]; [4]
  Complete: 0.8162

## C[C@]12CCC(=O)C=C1CC[C@@H]1[C@@H]2C(=O)C[C@@]2(C)[C@H]1CC[C@]2(O)C(=O)CO [Cortisone]
[1]; [3]
  Cholesterol-free media + simvastatin (0.04 μM): 1.033
[1]; [4]
  Complete Media: 0.8818
[1]; [12]
  Difference: −0.15
[2]; [6]
  Difference: −0.30
[2]; [11]
  Cholesterol-free: 1.216
[2]; NCI-H292 cells, complete media
  Complete: 0.9117

## Gentamicin (sulfate)
[1]; [22]
  Cholesterol-free media + simvastatin (0.04 μM): 0.8679
[1]; [23]
  Complete Media: 0.9575
[1]; [5]
  Difference: 0.09
[2]; [6]
  Difference: 0.07
[2]; [7]
  Cholesterol-free: 0.9104
[2]; [8]
  Complete: 0.9799

## Nc1nc(NC2CC2)c2ncn([C@H]3C=C[C@@H](CO)C3)c2n1 [Abacavir]
[1]; [3]
  Cholesterol-free media + simvastatin (0.04 μM): 1.851
[1]; [4]
  Complete Media: 2.026
[1]; [5]
  Difference: 0.18
[2]; [7]
  Cholesterol-free: 0.6425
[2]; [8]
  Complete: 1.2
[2]; [15]
  Difference: 0.56

## Gadoxetate (Disodium)
[1]; [3]
  Cholesterol-free media + simvastatin (0.04 μM): 1.553
[1]; [4]
  Complete Media: 1.778
[1]; [9]
  Difference: 0.22
[2]; [10]
  Difference: −0.26
[2]; [11]
  Cholesterol-free: 1.164
[2]; NCI-H292 cells, complete media
  Complete: 0.9023

## Tamoxifen (Citrate)
[1]
  Cholesterol-free media + simvastatin (0.04 μM): 0.9205
  Complete Media: 0.7671
  Difference: −0.15
[2]
  Cholesterol-free: 0.4962
  Complete: 0.576
  Difference: 0.08

## CCOc1ccc(Cc2cc([C@@H]3O[C@H](CO)[C@@H](O)[C@H](O)[C@H]3O)ccc2Cl)cc1
[1]; [3]
  Cholesterol-free media + simvastatin (0.04 μM): 0.9312
[1]; [4]
  Complete Media: 1.177
[1]; [5]
  Difference: 0.25
[2]; NCI-H292 cells, complete media
  Complete: 0.6259
[2]; [16]
  Difference: −0.32

## CCCCOCCOCCOCc1cc2c(cc1CCC)OCO2 [Piperonyl butoxide]
[1]; [17]
  Cholesterol-free media + simvastatin (0.04 μM): 1.206
[1]; [18]
  Complete Media: 1.18
[1]; [19]
  Difference: −0.03
[2]; [6]
  Difference: −0.29
[2]; [11]
  Cholesterol-free: 1.491
[2]; NCI-H292 cells, complete media
  Complete: 1.202

## CN(CCCCCCCCCCN(C)C(=O)Oc1cccc([N+](C)(C)C)c1)C(=O)Oc1cccc([N+](C)(C)C)c1 [Demecarium Bromide]
[1]; [13]
  Cholesterol-free media + simvastatin (0.04 μM): 1.197
[1]; [14]
  Complete Media: 0.9059
[1]; [20]
  Difference: −0.29
[2]; [10]
  Difference: −0.29
[2]; [11]
  Cholesterol-free: 1.112
[2]; NCI-H292 cells, complete media
  Complete: 0.8186

## Lasofoxifene (Tartrate)
[1]; [3]
  Cholesterol-free media + simvastatin (0.04 μM): 0.6494
[1]; [4]
  Complete Media: 0.9428
[1]; [9]
  Difference: 0.29
[2]; [11]
  Cholesterol-free: 1.19
[2]; NCI-H292 cells, complete media
  Complete: 0.7569
[2]; [21]
  Difference: −0.43

## N[C@@H](C(=O)N[C@@H]1C(=O)N2C(C(=O)O)=C(Cl)CS[C@H]12)c1ccccc1 [Cefaclor]
[1]; [22]
  Cholesterol-free media + simvastatin (0.04 μM): 1.593
[1]; [23]
  Complete Media: 1.696
[1]; [5]
  Difference: 0.10
[2]; [24]
  Difference: −0.11
[2]; [25]
  Cholesterol-free: 1.02
[2]; [4]
  Complete: 0.9111

## CN(C)CCC=C1c2ccccc2C(C)(C)c2ccccc21 [Melitracen (hydrochloride)]
[1]; [3]
  Cholesterol-free media + simvastatin (0.04 μM): 1.24
[1]; [4]
  Complete Media: 1.495
[1]; [5]
  Difference: 0.26
[2]; [24]
  Difference: −0.10
[2]; [25]
  Cholesterol-free: 1.283
[2]; [4]
  Complete: 1.187

## Cc1cc(/C=C/C#N)cc(C)c1Nc1ccnc(Nc2ccc(C#N)cc2)n1 [Rilpivirine]
[1]; [13]
  Cholesterol-free media + simvastatin (0.04 μM): 1.859
[1]; [14]
  Complete Media: 1.359
[1]; [12]
  Difference: −0.50
[2]; [6]
  Difference: 0.06
[2]; [7]
  Cholesterol-free: 0.8235
[2]; [8]
  Complete: 0.8865
